In ChEMBL document CHEMBL1125470, “Novel sulfonamides as potential, systemically active antitumor agents” (J Med Chem, 1992):
Converted amounts (≈) assume the structure as drawn. One block for each compound: values may come before it.

Assays:
MC-38 [1] = test: Ratio between Tumor weight of treated mice and Tumor weight of control mice * 100 at the dose of 100 (mg/kg/day); format: functional
MC-38 [2] = test: In vitro inhibitory activity against colon 38 cell proliferation; format: functional, cell-based; conditions: Mus musculus
Mus musculus [3] = test: Ratio between dead mices and total mices at the dose of 100 (mg/kg/day.); 0/6; format: functional
Mus musculus [4] = test: Ratio between dead mices and total mices at the dose of 50 (mg/kg/day.); 0/6; format: functional
MC-38 [5] = test: Ratio between Tumor weight of treated mice and Tumor weight of control mice * 100 at the dose of 12.5 (mg/kg/day); format: functional
MC-38 [6] = test: Ratio between Tumor weight of treated mice and Tumor weight of control mice * 100 at the dose of 25 (mg/kg/day); format: functional
MC-38 [7] = test: Ratio between Tumor weight of treated mice and Tumor weight of control mice * 100 at the dose of 50 (mg/kg/day); format: functional
KB = test: In vitro inhibitory activity against KB (human carcinoma of the nasopharynx) cell proliferation.; format: functional, cell-based
Mus musculus [8] = test: Ratio between dead mices and total mices at the dose of 25 (mg/kg/day.); 0/6; format: functional
Mus musculus [9] = test: Ratio between dead mices and total mices at the dose of 12.5 (mg/kg/day.); 0/6; format: functional
MC-38 [10] = test: Ratio between Tumor weight of treated mice and Tumor weight of control mice * 100 at the dose of 100 (mg/kg/day.); format: functional
Mus musculus [11] = test: Ratio between dead mices and total mices at the dose of 400 (mg/kg/day.); 0/6; format: functional
Mus musculus [12] = test: Ratio between dead mices and total mices at the dose of 200 (mg/kg/day.); 0/6; format: functional
MC-38 [13] = test: Ratio between Tumor weight of treated mice and Tumor weight of control mice * 100 at the dose of 200 (mg/kg/day.); format: functional
MC-38 [14] = test: Ratio between Tumor weight of treated mice and Tumor weight of control mice * 100 at the dose of 400 (mg/kg/day.); format: functional
MC-38 [15] = test: Ratio between Tumor weight of treated mice and Tumor weight of control mice * 100 at the dose of 200 (mg/kg/day); format: functional
Mus musculus [16] = test: Ratio between dead mices and total mices at the dose of 200 (mg/kg/day.); 2/6; format: functional
MC-38 [17] = test: Ratio between Tumor weight of treated mice and Tumor weight of control mice * 100 at the dose of 50 (mg/kg/day.); format: functional

SMILES: COc1ccc(S(=O)(=O)Nc2cccnc2Nc2ccc(O)cc2)cc1 [ABT-751]
T/C (MC-38 [1]): 2%
IC50 (MC-38 [2]): 0.38 µg/mL (≈ 1.02 µM)
Deaths/total (Mus musculus [3]): 0
Deaths/total (Mus musculus [4]): 0
T/C (MC-38 [5]): 59%
T/C (MC-38 [6]): 32%
T/C (MC-38 [7]): 3%
IC50 (KB): 0.29 µg/mL (≈ 0.781 µM)
Deaths/total (Mus musculus [8]): 0
Deaths/total (Mus musculus [9]): 0

SMILES: Cc1ccc(S(=O)(=O)Nc2cccnc2Nc2ccccc2)cc1
T/C (MC-38 [10]): 20%
IC50 (MC-38 [2]): 3.2 µg/mL (≈ 9.43 µM)
Deaths/total (Mus musculus [3]): 0
IC50 (KB): 1.5 µg/mL (≈ 4.42 µM)
Deaths/total (Mus musculus [11]): 0
Deaths/total (Mus musculus [12]): 0
T/C (MC-38 [13]): 19%
T/C (MC-38 [14]): 1%

SMILES: COc1ccc(S(=O)(=O)Nc2cccnc2Nc2ccncc2)cc1
IC50 (MC-38 [2]): 1.4 µg/mL (≈ 3.93 µM)
Deaths/total (Mus musculus [4]): 0
T/C (MC-38 [5]): 41%
T/C (MC-38 [6]): 35%
T/C (MC-38 [7]): 14%
IC50 (KB): 1 µg/mL (≈ 2.81 µM)
Deaths/total (Mus musculus [8]): 0
Deaths/total (Mus musculus [9]): 0

SMILES: COc1ccc(Nc2ncccc2NS(=O)(=O)c2ccc(OC)cc2)cc1
T/C (MC-38 [15]): 0%
T/C (MC-38 [10]): 1%
IC50 (MC-38 [2]): 3.6 µg/mL (≈ 9.34 µM)
Deaths/total (Mus musculus [3]): 0
Deaths/total (Mus musculus [4]): 0
Deaths/total (Mus musculus [16]): 2
T/C (MC-38 [17]): 30%
IC50 (KB): 1.9 µg/mL (≈ 4.93 µM)

IC50 (KB): 0.46 µg/mL (≈ 1.36 µM)
SMILES: Cc1ccc(S(=O)(=O)Nc2ccccc2Nc2ccccc2)cc1
IC50 (MC-38 [2]): 1.2 µg/mL (≈ 3.55 µM)

SMILES: COc1ccc(S(=O)(=O)Nc2cccnc2Nc2ccccc2)cc1
T/C (MC-38 [10]): 2%
IC50 (MC-38 [2]): 0.45 µg/mL (≈ 1.27 µM)
Deaths/total (Mus musculus [3]): 0
Deaths/total (Mus musculus [4]): 0
T/C (MC-38 [17]): 27%
IC50 (KB): 0.27 µg/mL (≈ 0.76 µM)
Deaths/total (Mus musculus [12]): 0
T/C (MC-38 [13]): 1%
